Values quoted from earlier work in patent US20150050358A1, “IMPLANT SUPPORT COMPOSITION AND METHODS OF USE” (REGENTS OF THE UNIVERSITY OF MINNESOTA, priority 2013, published 2015).

Settings: antibiotic solution

pH of solution: 4.5-7.0 pH
SMILES: Cc1ncc([N+](=O)[O-])n1CCO [metronidazole]
